# Patent US20230124862A1, “BISMUTH THIOL COMPOUNDS AND COMPOSITIONS AND METHODS OF TREATING MICROBIAL CO-INFECTIONS” (Microbion Corporation, priority 2020, published 2023)
# Like-named read-outs stand apart in the source and are kept apart here. Marks after values point to notes of the source that are not given here.
# Legend:
# P. aeruginosa = assay: Broth microdilution MIC (Example 10); type: cell-based, Pseudomonas aeruginosa; details: initial MIC testing
# [1] = tested on: Burkholderia cepacia complex; type: cell-based, Burkholderia spp.; details: initial MIC testing
# [2] = tested on: Burkholderia cepacia complex; assay: Checkerboard FIC/FICI assay; type: cell-based, Burkholderia spp.; details: during FIC testing
# Candida auris = assay: Antifungal broth microdilution (Example 13); type: cell-based; details: 50% inhibition
# Candida krusei = assay: Antifungal broth microdilution (Example 13); type: cell-based; details: 50% inhibition
# Candida glabrata = assay: Antifungal broth microdilution (Example 13); type: cell-based; details: 50% inhibition
# Aspergillus spp. = assay: Antifungal broth microdilution (Example 13); type: cell-based, A. niger, A. terreus, A. fumigatus, A. flavus; details: minimum effective concentration
# [3] = tested on: vancomycin-intermediate Staphylococcus aureus (VISA); assay: Broth microdilution MIC (Example 12); type: cell-based; details: Staphylococcus aureus, VISA, VISA isolates; read-out: MIC values
compound,measurement,setting,value
C[C@H]1[C@H](NC(=O)/C(=N\OC(C)(C)C(=O)O)c2csc(N)n2)C(=O)N1S(=O)(=O)O [AZT],MIC,"P. aeruginosa; P. aeruginosa isolate 103, QC strain",[…]
same,MIC,[2]; B. cenocepacia isolate 0548,64 µg/mL
same,MIC,[2]; B. cepacia isolate 1793,128 µg/mL
same,MIC,[2]; B. multivorans isolate 1795,16 µg/mL
CC[C@H](C)C[C@H](C)CCCCCCCCC(=O)N[C@H]1C[C@@H](O)[C@@H](NCCN)NC(=O)[C@@H]2[C@@H](O)CCN2C(=O)[C@H]([C@H](O)CCN)NC(=O)[C@H]([C@H](O)[C@@H](O)c2ccc(O)cc2)NC(=O)[C@@H]2C[C@@H](O)CN2C(=O)[C@H]([C@@H](C)O)NC1=O [CASP],MIC2,"Candida auris; C. auris MMX 9862, Susceptible",0.12 µg/mL
same,MIC2,"Candida auris; C. auris MMX 9863, FLU-R, VORI-R",0.12^b μg/mL
same,MIC2,"Candida auris; C. auris MMX 9864, FLU-R, VORI-R",0.25^b μg/mL
same,MIC2,"Candida auris; C. auris MMX 9865, FLU-R, VORI-R",0.25^b μg/mL
same,MIC2,"Candida auris; C. auris MMX 9866, FLU-R, VORI-R",0.12^b μg/mL
same,MIC2,"Candida auris; C. auris MMX 9867, FLU-R, VORI-R",0.12 µg/mL
same,MIC2,"Candida auris; C. auris MMX 9868, FLU-R, VORI-R",0.25 µg/mL
same,MIC2,"Candida auris; C. auris MMX 9869, FLU-R, VORI-R",0.25 µg/mL
same,MIC2,"Candida auris; C. auris MMX 9870, FLU-R, VORI-R",0.25 µg/mL
same,MIC2,"Candida auris; C. auris MMX 9871, Susceptible",0.25^b μg/mL
same,MIC2,"Candida krusei; C. krusei ATCC 6258, MICA-I",0.25 µg/mL
same,MIC2,"Candida krusei; C. krusei ATCC 14243, Susceptible",0.012 µg/mL
same,MIC2,"Candida krusei; C. krusei ATCC 96685, Susceptible",0.12 µg/mL
same,MIC2,"Candida krusei; C. krusei MMX 7125, Susceptible",0.25 µg/mL
same,MIC2,"Candida krusei; C. krusei MMX 7128, Susceptible",0.25 µg/mL
same,MIC2,"Candida krusei; C. krusei MMX 7141, Susceptible",0.25 µg/mL
same,MIC2,"Candida krusei; C. krusei MMX 7153, MICA-R",0.25 µg/mL
same,MIC2,"Candida krusei; C. krusei MMX 7155, Susceptible",0.25 µg/mL
same,MIC2,"Candida krusei; C. krusei MMX 7563, Susceptible",0.12 µg/mL
same,MIC2,"Candida krusei; C. krusei MMX 9878, MICA-I, VORI-I",0.25 µg/mL
same,MIC2,"Candida glabrata; C. glabrata ATCC 90030, Susceptible",0.12 µg/mL
same,MIC2,"Candida glabrata; C. glabrata ATCC MYA-2950, Susceptible",0.12 µg/mL
same,MIC2,"Candida glabrata; C. glabrata MMX 7087, Susceptible",0.12 µg/mL
same,MIC2,"Candida glabrata; C. glabrata MMX 7093, FLU-R",0.12 µg/mL
same,MIC2,"Candida glabrata; C. glabrata MMX 7101, FLU-R",0.12 µg/mL
same,MIC2,"Candida glabrata; C. glabrata MMX 7103, CASP-R, MICA-R",>8 µg/mL
same,MIC2,"Candida glabrata; C. glabrata MMX 7111, Susceptible",0.12 µg/mL
same,MIC2,"Candida glabrata; C. glabrata MMX 7285, CASP-R, MICA-R",0.5 µg/mL
same,MIC2,"Candida glabrata; C. glabrata MMX 7307, CASP-R, MICA-R, FLU-R",>8 µg/mL
same,MIC2,"Candida glabrata; C. glabrata MMX 7549, Susceptible",0.06 µg/mL
same,MEC,Aspergillus spp.; A. flavus ATCC 22546,0.06 µg/mL
same,MEC,Aspergillus spp.; A. flavus ATCC 204304,0.06 µg/mL
same,MEC,Aspergillus spp.; A. flavus MMX 7935,0.03 µg/mL
same,MEC,Aspergillus spp.; A. fumigatus ATCC 204305,0.25 µg/mL
same,MEC,Aspergillus spp.; A. fumigatus ATCC MYA-3626,0.06 µg/mL
same,MEC,Aspergillus spp.; A. fumigatus MMX 5934,0.12 µg/mL
same,MEC,"Aspergillus spp.; A. fumigatus MMX 5938, 48 hr only, insufficient growth for 24 hr read",0.12^b μg/mL
same,MEC,Aspergillus spp.; A. fumigatus MMX 5939,0.12 µg/mL
same,MEC,"Aspergillus spp.; A. niger ATCC 29508, 48 hr only, insufficient growth for 24 hr read",0.06^b μg/mL
same,MEC,"Aspergillus spp.; A. terreus MMX 8229, 48 hr only, insufficient growth for 24 hr read",0.12^b μg/mL
"CC(=O)NC[C@H]1CN(c2ccc(N3CCOCC3)c(F)c2)C(=O)O1 [linezolid, reference compound]",MIC,[3],< 4 µg/mL
